Columns and labels:
reverse transcriptase = target: T1, reverse transcriptase (Human immunodeficiency virus type 1 group M subtype B, UniProt P03366); assay: Biochemical reverse transcriptase assay (Reverse Transcriptase Assay, colorimetric, Roche); details: read-out: IC50 (nM) RT assay
T1 construct: negative control (mixture without reverse transcriptase); purchased Roche Diagnostics GmbH, Mannheim, Germany
Experimental: The “Reverse Transcriptase Assay, colorimetric” (Roche Diagnostics GmbH, Mannheim, Germany) is used in accordance with the manufacturer's information. The test substances are dissolved in DMSO and are used in the test diluted in 5-fold steps (final DMSO concentration 1%). The resulting values of the photometric evaluation (405/492 nm) are less than 0.1 for the negative control (mixture without reverse transcriptase) and are in the region of 1.5 for the positive control (mixture without test substance). The IC50 values of the test substances are determined as the concentration of the test substance dilution at which the measured optical density is 50% of the positive control.

HIV-1LAI = assay: H9 assay with wild-type HIV-1 (HIV-1LAI supernatant infection, AlamarBlue); format: cell-based; details: Human immunodeficiency virus 1, H9 cells, 10% FCS
Experimental: For the mixture for a 96-well MTP, 3 million PBLs are pelleted, suspended in 1 ml of RPMI 1640 medium/10% FCS and incubated together with a suitable amount of HIV-1LAI (NIH AIDS Research & Reference Reagent Program, Germantown, USA) at 37° C. for 2 hours (pellet infection). Unadsorbed viruses are subsequently washed out with PBS, and the infected cells are pelleted again and suspended in 18 ml of RPMI 1640 medium/10% FCS/interleukin-2 (40 U/ml). 180 μl thereof are pipetted into each well of a white 96-well MTP with 20 μl of test substance in suitable dilution. Alternatively, after preparation of the substance dilutions in the MTP, the HIV is pipetted in together with the cells and is not washed out again (supernatant infection). In order to avoid edge effects, the wells at the edge of the MTP are not used for substance dilutions. The second vertical row of the MTP contains only infected cells (virus control) and the eleventh vertical row only uninfected cells (cell control), in each case in RPMI 1640 medium/10% FCS/interleukin-2 (40 U/ml). The other wells of the MTP contain the compounds of the invention in various concentrations starting from the third vertical row, from which the test substances are diluted in 3-fold steps up to the tenth vertical row 3^7-fold. The test substances are dissolved in DMSO, whereby the final DMSO concentration in the test mixture is 1%. The test mixtures are incubated at 37° C./5% CO2. After 5 and 7 days, 50 μl of cell-free supernatant are removed from each well to determine the amount of p24 present by means of a p24 ELISA (HIV-1 p24^CA Antigen Capture Assay Kit, NCI-Frederick Cancer Research and Development Center, Frederick, USA). From the resulting values of the photometric evaluation (450/620 nm) the EC50 values of the test substances are determined as the concentration at which the amount of p24 is 50% of the untreated infected cells.
Alternatively, H9 cells (ATCC, Wesel, Germany) are employed instead of PBLs for testing the test substances. H9 cells are incubated in RPMI 1640 medium with 2% or 10% FCS as a HIV-ILAI supernatant infection at 37° C./5% CO2, (20 μl of substance dilution and 80 μl of cells/virus per well) in accordance with the pattern described above for 5 days. Subsequently, 10 μl of AlamarBlue® (Invitrogen, Karlsruhe, Germany) are added to each well, and the MTPs are incubated at 37° C. for 3 hours before the fluorimetric evaluation takes place (544/590 nm). The resulting values are about 40 000 for the untreated uninfected cells and about 7000 for the untreated infected cells. In the low concentration range, the EC50 values of the test substances are determined as the concentration at which the fluorescence is 50% of the untreated uninfected cells (in each case subtracting the values of the untreated infected cells). In addition, in the high concentration range, the CC50 values of the test substances are determined as the concentration at which the fluorescence is 50% of the untreated uninfected cells (in each case subtracting the values of the untreated infected cells).

HIV-1NL4-3 wt = assay: Light assay with wild-type HI reporter virus in MT4 7F2 cells; format: cell-based; details: Human immunodeficiency virus 1, 2% FCS
Experimental: (§1) For the mixture for a 96-well MTP, 3 million MT4 7F2 cells are pelleted, suspended in 1 ml of RPMI 1640 medium without phenol red (Invitrogen, Karlsruhe, Germany)/10% FCS/10% AIM-V (Invitrogen, Karlsruhe, Germany) and incubated together with a suitable amount of the corresponding HIV-1NL4-3 reporter virus at 37° C. for 2 hours (pellet infection). Unadsorbed viruses are subsequently washed out with PBS, and the infected cells are pelleted again and suspended in 8 ml of RPMI 1640 medium without phenol red/2% or 10% FCS/10% AIM-V. 80 μl thereof are pipetted into each well of a white 96-well MTP with 20 μl of test substance in suitable dilution. To avoid edge effects, the wells on the edge of the MTP are not used for substance dilutions. The second vertical row of the MTP contains only infected cells (virus control) and the eleventh vertical row only uninfected cells (cell control), in each case in RPMI 1640 medium without phenol red/2% or 10% FCS/10% AIM-V. The other wells of the MTP contain the compounds of the invention in various concentrations starting from the third vertical row, from which the test substances are diluted in 3-fold steps up to the tenth vertical row 3^7-fold. The test substances are dissolved in DMSO, whereby the final DMSO concentration in the test mixture is 1%. The test mixtures are incubated at 37° C./5% CO2 for five days and, after the addition of 15 μl of Lu164 substrate (5 mg/ml coelenterazine dissolved in 30 μM glutathione/DMSO, 100 mM NaCl, 1M MES, 100 mM glutathione), evaluated by luminometry. The resulting values are in the region of 1 000 000 RLUs (relative light units) for the virus control and 300 to 400 RLUs for the cell control. The EC50 values of the test substances are determined as the concentration at which the virus replication measured in RLUs is 50% of the untreated infected cells.

HIV-1NL4-3 K103N-Y181C = assay: Light assay with inhibitor-resistant HI reporter virus in MT4 7F2 cells; format: cell-based; details: Human immunodeficiency virus 1, read-out: EC50 (nM) MT4 7F2 cells HIV-1NL4-3 K103N-Y181C 2% FCS
Experimental: as §1

Row | SMILES | IC50 (reverse transcriptase) | EC50 (HIV-1LAI) | EC50 (HIV-1NL4-3 wt) | EC50 (HIV-1NL4-3 K103N-Y181C)
1 | O=C1CN(C(=O)c2cc(-c3cc(F)cc(Cl)c3)c(-c3ccc(F)c(Cl)c3)o2)CN1 [Example 11, 1-{[5-(3-Chloro-4-fluorophenyl)-4-(3-chloro-5-fluorophenyl)furan-2-yl]-carbonyl}imidazolidin-4-one] | 370 nM | 77 nM | 20 nM | 255 nM
2 | N#Cc1cc(-c2oc(C(=O)N3CNC(=O)C3)cc2-c2cc(F)cc(Cl)c2)ccc1F [Example 23, 5-{3-(3-Chloro-5-fluorophenyl)-5-[(4-oxoimidazolidin-1-yl)carbonyl]furan-2-yl}-2-fluorobenzenecarbonitrile] |  | 18 nM | 2 nM | 100 nM
3 | N#Cc1cc(-c2oc(C(=O)N3CCNC(=O)C3)cc2-c2cccc(Cl)c2)ccc1F [Example 24, 5-{3-(3-Chlorophenol)-5-[(3-oxopiperazin-1-yl)carbonyl]furan-2-yl}-2-fluorobenzenecarbonitrile] |  | 47 nM | 4 nM | 320 nM
4 | O=C1CN(C(=O)c2cc(-c3cccc(Cl)c3)c(-c3ccc(F)c(Cl)c3)o2)CN1 [Example 25, 1-{[5-(3-Chloro-4-fluorophenyl)-4-(3-chlorophenyl)furan-2-yl]carbonyl}imidazolidin-4-one] |  | 225 nM | 18 nM | 250 nM
5 | N#Cc1cc(-c2oc(C(=O)N3CNC(=O)C3)cc2-c2cccc(Cl)c2)ccc1F [Example 26, 5-{3-(3-Chlorophenyl)-5-[(4-oxoimidazolidin-1-yl)carbonyl]furan-2-yl}-2-fluorobenzenecarbonitrile] |  | 150 nM | 20 nM | 250 nM
6 | COc1cccc(-c2oc(C(=O)N3CNC(=O)C3)cc2-c2cccc(Cl)c2)c1 [Example 27, 1-{[4-(3-Chlorophenyl)-5-(3-methoxyphenyl)furan-2-yl]carbonyl}imidazolidin-4-one] |  | 200 nM | 14 nM | 700 nM
7 | Cc1cc(C)cc(-c2cc(C(=O)N3CCNC(=O)C3)oc2-c2cccc(Cl)c2)c1 [Example 28, 4-{[5-(3-Chlorophenyl)-4-(3,5-dimethylphenyl)furan-2-yl]carbonyl}piperazin-2-one] |  | 200 nM | 30 nM | 400 nM
8 | COc1cccc(-c2cc(C(=O)N3CCNC(=O)C3)oc2-c2cccc(Cl)c2)c1 [Example 29, 4-{[5-(3-Chlorophenyl)-4-(3-methoxyphenyl)furan-2-yl]carbonyl}piperazin-2-one] |  | 450 nM | 53 nM | 400 nM
9 | O=C1CN(C(=O)c2cc(-c3cccc(Cl)c3)c(-c3cccc(Cl)c3)o2)CCN1 [Example 30, 4-{[4,5-Bis(3-chlorophenyl)furan-2-yl]carbonyl}piperazin-2-one] | 750 nM | 200 nM | 25 nM | 650 nM
10 | N#Cc1cc(F)cc(-c2cc(C(=O)N3CNC(=O)C3)oc2-c2ccc(F)c(Cl)c2)c1 [Example 31, 3-{2-(3-Chloro-4-fluorophenyl)-5-[(4-oxoimidazolidin-1-yl)carbonyl]furan-3-yl}-5-fluorobenzenecarbonitrile] |  | 80 nM | 8 nM | 80 nM
11 | N#Cc1cc(F)cc(-c2cc(C(=O)N3CNC(=O)C3)oc2-c2cccc(Cl)c2)c1 [Example 32, 3-{2-(3-Chlorophenyl)-5-[(4-oxoimidazolidin-1-yl)carbonyl]furan-3-yl}-5-fluorobenzenecarbonitrile] |  | 70 nM | 2 nM | 150 nM
12 | N#Cc1cc(F)cc(-c2cc(C(=O)N3CCNC(=O)C3)oc2-c2cccc(Cl)c2)c1 [Example 33, 3-{2-(3-Chlorophenyl)-5-[(3-oxopiperazin-1-yl)carbonyl]furan-3-yl}-5-fluorobenzenecarbonitrile] |  | 25 nM | < 1.5 nM | 200 nM
13 | N#Cc1cc(F)cc(-c2cc(C(=O)N3CCOCC3)oc2-c2cccc(C#N)c2)c1 [Example 34, 3-[2-(3-Cyanophenyl)-5-(morpholin-4-ylcarbonyl)furan-3-yl]-5-fluorobenzenecarbonitrile] |  | 30 nM | < 1.5 nM | 300 nM

Reference: patent publication US8324268B2, “Substituted furancarboxamides, and use thereof” (AiCuris GmbH & Co. KG, priority 2008, dated 2012)
